≈ marks a conversion by molar mass, not a printed value. Like-named read-outs stand apart in the source and are kept apart here.
Key:
[1] = DPPH radical scavenging assay
Experimental: The DPPH scavenging test was carried out using the method mentioned by Brand-Williams et al.. The percentage of DPPH scavenging was measured using Equation (1): % DPPH scavenging = (ODcontrol − ODsample)/ODcontrol × 100(1)

[2] = target: porcine pancreatic elastase (Sus scrofa, UniProt P00772); experiment: Elastase inhibition assay (N-succinyl-Ala-Ala-Ala-p-nitroanilide substrate); type: biochemical; conditions: for remaining activity at 100 µg/mL: read-out: Elastase activity (% of control)
Experimental: The elastase inhibition activity of EAE and its pure molecules FC and FM2 was evaluated at different concentrations ranging from 12 to 100 µg/mL. […] At a concentration of 100 µg/mL, the percentages of elastase activity with EAE, FC, and FM2 were equal to 12%, 42%, and 29%, respectively. Besides, the percentage of elastase activity with Epigallocatechin gallate was 8%.
The elastase inhibitory effect of our samples was evaluated as described by Angelis et al., using the enzyme porcine pancreatic elastase and the substrate N-succinyl-Ala-Ala-Ala-p-nitroanilide. The extract and the pure molecules were evaluated at concentrations ranging between 12 and 100 µg/mL. Epigallocatechin gallate was used as a positive control. The elastase inhibition was measured using Equation (3):% Elastase inhibition = (ODcontrol − ODsample) ODcontrol × 100(3)

mushroom tyrosinase = experiment: Tyrosinase inhibition assay (L-DOPA substrate); type: biochemical; conditions: for IC50 of tyrosinase activity: L-DOPA; for Tyrosinase activity (% of control): at a concentration of 100 µg/mL
Experimental: EAE and its pure molecules FC and FM2 were evaluated in vitro for their tyrosinase inhibition activity.
The inhibitory effect of our samples on the mushroom tyrosinase enzyme was analyzed using the substrate L-DOPA [71]. The extract and the pure molecules were evaluated at concentrations ranging between 12 and 200 µg/mL. […] The tyrosinase inhibition was measured as follows:% Tyrosinase inhibition = (ODcontrol − ODsample)/ODcontrol × 100(2)

[3] = target: T1, cellular tyrosinase in B16 cells (Mus musculus, UniProt P11344); experiment: Cellular tyrosinase activity assay on B16 cells; type: cell-based
T1 sequence (P11344 19-533): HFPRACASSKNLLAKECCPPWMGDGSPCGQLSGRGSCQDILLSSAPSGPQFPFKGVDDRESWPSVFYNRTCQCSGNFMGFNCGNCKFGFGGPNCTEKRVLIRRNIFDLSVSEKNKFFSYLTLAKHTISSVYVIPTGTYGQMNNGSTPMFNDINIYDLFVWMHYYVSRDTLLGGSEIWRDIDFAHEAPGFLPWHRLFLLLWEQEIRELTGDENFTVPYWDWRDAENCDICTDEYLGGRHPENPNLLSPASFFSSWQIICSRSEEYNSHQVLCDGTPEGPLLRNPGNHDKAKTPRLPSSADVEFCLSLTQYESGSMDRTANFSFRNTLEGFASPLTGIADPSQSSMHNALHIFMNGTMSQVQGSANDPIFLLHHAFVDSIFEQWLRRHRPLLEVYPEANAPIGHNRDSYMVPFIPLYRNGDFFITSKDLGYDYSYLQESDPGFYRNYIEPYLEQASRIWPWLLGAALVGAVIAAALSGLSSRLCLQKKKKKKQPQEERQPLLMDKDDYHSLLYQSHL
Experimental: The cellular tyrosinase inhibition activity on B16 cells was evaluated using EAE, FC, and FM2.
(§1) B16 cells (C57BL/6, Resource No. RBRC-RCB0557) used in this study were prepared as described by Elloumi et al..
The cellular tyrosinase activity on B16 cells was evaluated as described by Kamei et al. with some modifications. Briefly, B16 cells were incubated in a 96-well plate (25 × 10^3 cells/well) for 24 h. […] After that, the cells were washed with PBS and lysed with PBS supplemented with 1% of Triton-X/PBS, after 48 h of samples exposure. A volume of 100 µL of 0.1% L-DOPA was added to the wells for 1 h. […] The cellular tyrosinase inhibition was measured as follows:% Cellular tyrosinase inhibition = (ODcontrol − ODsample)/ODcontrol × 100(5)

[4] = Cell viability / cytotoxicity, MTT assay; conditions: mouse
Experimental: (§2) The cell viability of EAE and the two major isolated molecules FC and FM2 were evaluated against B16 cells.
as §1
(§3) The MTT assay was performed to evaluate the cytotoxicity effect of our samples on B16 cells. Different sample concentrations (2.5–80 µg/mL) were applied to the Cells. The […] was measured as follows:% Cell viability = (ODsample/ODcontrol) × 100(4)

B16 cells = experiment: Cell viability / cytotoxicity, MTT assay; conditions: B16 cells, MTT; viability above 70% considered non-toxic (ISO 10993-5)
Experimental: as §2, §1, §3

[5] = Transdermal diffusion, Franz diffusion cell with strat-M membrane; type: in vitro ADME; conditions: 5% EAE-hydro-cream, 24 h of incubation; for µg of Crossed Molecule/g of 5% Hydro-cream: strat-M membrane, 37 °C, mean ± SD (n = 9)
Experimental: The transdermal diffusion of 5% EAE-hydro-cream formulation was evaluated using Franz diffusion cell and start-M membrane. […] The receptor medium of the Franz cell was analyzed by HPLC-MS to determine the bioactive compounds that crossed the strat-M membrane after 24 h of incubation. […] The bioactive molecules FC and FM2 that crossed the strat-M membrane were subjected to quantification. […] Moreover, FC has crossed the membrane but with a lower concentration than FM2 (Table 4).
Transdermal diffusion was evaluated using a Franz diffusion cell system, as mentioned by Chuang et al. with certain modifications. Firstly, the start-M membrane, a model membrane for transdermal diffusion, was mounted in a Franz diffusion cell. Then, 5 mL of 0.1 M sodium phosphate buffer (PBS) and 1 g of extract formulation cream were placed in the receptor and the donor compartments, respectively. The extract formulation cream was prepared by mixing the hydro-cream base emulsion purchased from Galderma and the EAE at 5% (w/w) by a mechanical stirrer (VMI Rayneri, Francelab, Paris, France). The receptor medium of the Franz cell was maintained at 37 °C and stirred with a magnetic stirrer at 400 rpm. After 24 h, the receptor medium was recovered, evaporated, freeze-dried, and then 4 mL of MeOH was added. The sample was filtered through a 0.45 filter and analyzed by HPLC-MS to determine the bioactive molecules that were released from the start-M membrane. The bioactive molecules that crossed the start-M membrane were then quantified, as described in Section 4.4.6, by injecting the receptor medium through HPLC-DAD at a concentration of 10 mg/mL. Results were expressed as µg of molecule crossed the membrane/g of 5% EAE-hydro-cream.

[6] = at a concentration of 100 µg/mL

Chain of porcine pancreatic elastase (P00772 27-266): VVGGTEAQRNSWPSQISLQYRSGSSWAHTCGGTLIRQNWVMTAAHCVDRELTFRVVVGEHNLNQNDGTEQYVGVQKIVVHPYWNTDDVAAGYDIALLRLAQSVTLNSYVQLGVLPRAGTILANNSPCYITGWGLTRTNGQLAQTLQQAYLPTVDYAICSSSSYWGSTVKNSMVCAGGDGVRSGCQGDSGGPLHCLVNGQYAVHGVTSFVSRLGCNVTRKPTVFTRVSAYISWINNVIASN

Structure (SMILES)	IC50 of tyrosinase activity (mushroom tyrosinase)	Tyrosinase activity (% of control) (mushroom tyrosinase)	remaining activity at 100 µg/mL [2, 6]	Concentration that did not decrease the percentage of cell viability (B16 cells)	Crossing of the strat-M membrane (detected in receptor medium by HPLC-MS) [5]	µg of Crossed Molecule/g of 5% Hydro-cream [5]	further results
O=C1O[C@H]([C@@H](O)CO)C(O)=C1O [Ascorbic acid]							DPPH IC50 [1]: 13.85 µg/mL
O=C(O[C@@H]1Cc2c(O)cc(O)cc2O[C@@H]1c1cc(O)c(O)c(O)c1)c1cc(O)c(O)c(O)c1 [Epigallocatechin gallate, reference compound]							Elastase activity (% of control) [2, 6]: 8%; IC50 of elastase activity ([2]; porcine pancreatic elastase): 12 µg/mL
C[C@@H]1O[C@@H](Oc2c(-c3ccc(O)c(O)c3)oc3cc(O)cc(O)c3c2=O)[C@H](O)[C@H](O)[C@H]1O [FC, quercetin-3-O-rhamnoside]	49 µg/mL	9%	42%	≤ 2.5 µg/mL	have crossed the membrane	3.161 ± 0.006 µg/g of 5% hydro-cream	IC50 [3]: 7.49 µM; IC50 [2]: 192 µM; IC50 [4]: 6.4 ± 0.53 µg/mL (≈ 14.3 µM)
C[C@@H]1O[C@@H](Oc2c(-c3cc(O)c(O)c(O)c3)oc3cc(O)cc(O)c3c2=O)[C@H](O)[C@H](O)[C@H]1O [FM2, myricetin-3-O-rhamnoside]	34 µg/mL	10%	29%	≤ 10 µg/mL	have crossed the membrane	52.102 ± 0.001 µg/g of 5% hydro-cream	IC50 ([3]; B16 cells, 48 h of samples exposure, read-out: Cellular tyrosinase inhibition IC50 (converted)): 9.91 µM; IC50 ([2]; porcine pancreatic elastase, read-out: IC50 of elastase activity (converted)): 96.9 µM; IC50 ([4]; B16 cells): 19.3 ± 1.22 µg/mL (≈ 41.6 µM)
O=c1cc(CO)occ1O [kojic acid, reference compound]		7%					
O=c1c(O[C@@H]2O[C@H](CO)[C@H](O)[C@H](O)[C@H]2O)c(-c2ccc(O)c(O)c2)oc2cc(O)cc(O)c12 [quercetin-3-O-galactoside]					have crossed the membrane		

From publication PMC8838631, “Pistacia lentiscus L. Distilled Leaves as a Potential Cosmeceutical Ingredient: Phytochemical Characterization, Transdermal Diffusion, and Anti-Elastase and Anti-Tyrosinase Activities” (Molecules, 2022)
